Calls of active or inactive are those of the source.
Key:
[1] = P. falciparum Dd2 growth inhibitors, dose response, SYBR Green, cherry-picked samples (AID 1159567); type: functional, cell-based
[2] = toxicity to human hepatoma HepG2 cells – cell-based, cherry-picked samples, cytotoxicity control, dose response (AID 1159577); type: functional
[3] = target: Luciferin 4-monooxygenase (Photinus pyralis, UniProt P08659); assay: inhibition of purified Photinus pyralis luciferase – biochemical, luminescence, dose response (AID 1891)
[4] = Luminescence Cell-Based Dose Confirmation HTS to Identify Inhibitors of Platelet Dense Granule Release. [Related pubchem assays: 1663 (Primary HTS), 1678 (Summary of Project)]; type: functional
[5] = target: T1, Heat shock factor protein 1 (Mus musculus, UniProt P38532); assay: decrease of HSF1-responsive luciferase luminescence – cell-based, NIH3T3, dose retest, confirmation (AID 2382); type: functional;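 note: NIH3T3 fibroblasts with HSF1-driven luciferase reporter stressed by proteasome inhibitor MG132; luminescence from HSF1-driven luciferase expression after 8 hours of MG132 stress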
T1 sequence (P38532 whole entry): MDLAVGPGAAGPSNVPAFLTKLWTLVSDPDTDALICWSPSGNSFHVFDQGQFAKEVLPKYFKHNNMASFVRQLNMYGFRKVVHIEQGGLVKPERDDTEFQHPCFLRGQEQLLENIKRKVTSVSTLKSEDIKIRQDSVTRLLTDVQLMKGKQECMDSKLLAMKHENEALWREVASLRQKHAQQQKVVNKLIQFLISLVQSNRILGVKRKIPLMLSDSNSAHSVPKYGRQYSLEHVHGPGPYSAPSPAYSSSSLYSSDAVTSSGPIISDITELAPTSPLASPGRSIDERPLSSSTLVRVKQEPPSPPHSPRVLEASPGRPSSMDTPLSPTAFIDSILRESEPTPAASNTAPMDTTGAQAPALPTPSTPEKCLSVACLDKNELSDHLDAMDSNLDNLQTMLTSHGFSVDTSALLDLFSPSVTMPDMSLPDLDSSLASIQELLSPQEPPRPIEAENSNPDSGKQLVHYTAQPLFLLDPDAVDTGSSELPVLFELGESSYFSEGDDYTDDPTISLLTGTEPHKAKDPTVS

[6] = Luminescence Cell-Based Dose Retest to Confirm Inhibitors of Cancer Stem Cells. [Related pubchem assays (depositor defined):AID2717, AID2721]; type: functional; details: Homo sapiens
[7] = target: T2, Replicative DNA helicase DnaB (Mycobacterium tuberculosis, UniProt P9WMR3); assay: DnaB intein splicing inhibitors, dose response, biochemical, cell-free fluorescence (AID 449749); type: functional
T2 sequence (P9WMR3 whole entry): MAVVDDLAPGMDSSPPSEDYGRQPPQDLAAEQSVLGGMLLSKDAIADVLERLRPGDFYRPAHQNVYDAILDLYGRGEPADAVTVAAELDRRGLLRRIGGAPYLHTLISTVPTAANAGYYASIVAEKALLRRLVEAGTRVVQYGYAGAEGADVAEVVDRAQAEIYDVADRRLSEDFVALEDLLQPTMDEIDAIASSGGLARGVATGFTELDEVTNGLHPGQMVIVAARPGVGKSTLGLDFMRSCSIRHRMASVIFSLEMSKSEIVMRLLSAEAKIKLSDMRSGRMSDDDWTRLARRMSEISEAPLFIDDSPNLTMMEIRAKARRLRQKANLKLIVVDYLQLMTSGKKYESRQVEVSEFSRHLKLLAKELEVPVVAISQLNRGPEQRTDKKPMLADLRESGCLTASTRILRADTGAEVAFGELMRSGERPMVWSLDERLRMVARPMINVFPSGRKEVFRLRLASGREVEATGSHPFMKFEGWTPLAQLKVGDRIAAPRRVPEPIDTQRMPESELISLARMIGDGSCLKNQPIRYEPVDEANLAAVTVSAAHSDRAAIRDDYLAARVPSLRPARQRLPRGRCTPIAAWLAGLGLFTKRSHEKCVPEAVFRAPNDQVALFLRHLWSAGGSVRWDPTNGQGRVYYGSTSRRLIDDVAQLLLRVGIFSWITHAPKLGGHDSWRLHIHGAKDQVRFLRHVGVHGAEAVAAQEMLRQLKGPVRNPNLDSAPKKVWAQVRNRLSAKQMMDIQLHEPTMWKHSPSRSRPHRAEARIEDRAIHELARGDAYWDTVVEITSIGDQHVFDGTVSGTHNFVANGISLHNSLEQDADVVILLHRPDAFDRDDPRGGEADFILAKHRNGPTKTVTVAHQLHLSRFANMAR

[8] = target: T3, Protein RecA (Mycobacterium tuberculosis, UniProt P9WHJ3); assay: Fluorescence Cell-Free Homogeneous Dose Retest to Identify Inhibitors of RecA-Intein Splicing Activity. [Related pubchem assays (depositor defined):AID2097, AID2223, AID489010, AID492950]; type: functional
T3 sequence (P9WHJ3 whole entry): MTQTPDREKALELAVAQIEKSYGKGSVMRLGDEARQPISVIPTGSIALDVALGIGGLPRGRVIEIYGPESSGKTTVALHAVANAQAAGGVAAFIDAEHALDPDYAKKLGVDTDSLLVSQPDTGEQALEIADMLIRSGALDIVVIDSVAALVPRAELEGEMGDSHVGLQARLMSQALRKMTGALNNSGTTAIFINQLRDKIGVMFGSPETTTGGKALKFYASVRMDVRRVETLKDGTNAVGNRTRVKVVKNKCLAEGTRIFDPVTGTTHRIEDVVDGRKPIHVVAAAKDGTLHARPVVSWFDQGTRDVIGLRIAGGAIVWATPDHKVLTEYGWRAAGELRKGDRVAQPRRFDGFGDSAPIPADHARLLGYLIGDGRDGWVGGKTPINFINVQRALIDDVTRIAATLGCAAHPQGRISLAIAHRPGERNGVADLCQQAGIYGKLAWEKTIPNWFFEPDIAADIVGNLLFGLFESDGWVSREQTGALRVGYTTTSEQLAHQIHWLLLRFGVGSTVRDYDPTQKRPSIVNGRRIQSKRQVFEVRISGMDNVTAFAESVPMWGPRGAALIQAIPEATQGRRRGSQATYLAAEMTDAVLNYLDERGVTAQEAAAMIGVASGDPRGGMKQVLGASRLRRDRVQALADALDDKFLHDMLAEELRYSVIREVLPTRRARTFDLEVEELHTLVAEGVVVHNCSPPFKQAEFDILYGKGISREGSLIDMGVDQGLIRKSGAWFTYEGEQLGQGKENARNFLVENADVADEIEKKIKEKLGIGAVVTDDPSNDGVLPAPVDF

[9] = toxicity toward HepG2 liver cells – cell-based, plate reader, cherry-pick, antagonist series, cytotoxicity control, dose response (AID 743416); type: functional
[10] = viability loss in HEK293 cells – cell-based, plate reader, cherry-picked samples, cytotoxicity control, dose response (AID 743446); type: functional
[11] = target: Glyceraldehyde-3-phosphate dehydrogenase (Homo sapiens, UniProt P04406)
[12] = tested on: BJ; assay: BJ-TERT fibroblast viability loss – cell-based, RAS-independent, luminescence, dose response (AID 1933); type: functional; details: Homo sapiens
[13] = tested on: BJ; assay: cells; type: functional, cell-based; details: Homo sapiens
[14] = tested on: BJ; assay: BJ-TERT-LT-ST fibroblast viability loss – cell-based, RAS-independent, luminescence, dose response (AID 1935); type: functional; details: Homo sapiens;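 note: BJ fibroblasts immortalized with TERT plus LT and ST oncogenes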
[15] = DRD fibroblast viability loss – cell-based, non-viral oncogenic, luminescence, dose response (AID 1934); type: functional; details: Homo sapiens
[16] = target: Nonstructural protein 1 (Influenza A virus, UniProt Q194T2); type: functional, Influenza A virus (A/California/07/2009(H1N1))
[17] = tested on: BJ; assay: growth inhibition of engineered Ras-driven BJ cells – cell-based, alamar blue fluorescence, cherrypicked samples, dose response (AID 2631); type: functional; details: Homo sapiens;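 note: confirmatory dose-response assay in RAS-dependent BJ fibroblasts engineered with TERT, LT and ST, with cytotoxicity read by fluorescence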
[18] = target: Induced myeloid leukemia cell differentiation protein Mcl-1 (Homo sapiens, UniProt Q07820); type: functional
[19] = target: Genome polyprotein (dengue virus type 2, UniProt P29990); assay: flavivirus cap methylation enzyme inhibition – biochemical, confirmation dose response, primary screen (AID 588689); type: functional
[20] = target: T4, Polyadenylate-binding protein 1 (Homo sapiens, UniProt P11940); assay: MLLE binding blockers, Cy5 peptide tracer – biochemical, fluorescence polarization, Cy5-PAM2 peptide, secondary, miRNA deadenylation inhibitor project, dose response (AID 602260); type: functional; details: read-out: IC50_Mean
[21] = target: T4, Polyadenylate-binding protein 1; assay: MLLE domain peptide-binding blockers, IC50 – biochemical, fluorescence polarization, FITC-PAM2 peptide, dose response (AID 602259); type: functional; details: read-out: IC50_Mean
[22] = target: T5, Histone-lysine N-methyltransferase NSD2 (Homo sapiens, UniProt O96028); type: biochemical
T5 sequence (O96028 whole entry): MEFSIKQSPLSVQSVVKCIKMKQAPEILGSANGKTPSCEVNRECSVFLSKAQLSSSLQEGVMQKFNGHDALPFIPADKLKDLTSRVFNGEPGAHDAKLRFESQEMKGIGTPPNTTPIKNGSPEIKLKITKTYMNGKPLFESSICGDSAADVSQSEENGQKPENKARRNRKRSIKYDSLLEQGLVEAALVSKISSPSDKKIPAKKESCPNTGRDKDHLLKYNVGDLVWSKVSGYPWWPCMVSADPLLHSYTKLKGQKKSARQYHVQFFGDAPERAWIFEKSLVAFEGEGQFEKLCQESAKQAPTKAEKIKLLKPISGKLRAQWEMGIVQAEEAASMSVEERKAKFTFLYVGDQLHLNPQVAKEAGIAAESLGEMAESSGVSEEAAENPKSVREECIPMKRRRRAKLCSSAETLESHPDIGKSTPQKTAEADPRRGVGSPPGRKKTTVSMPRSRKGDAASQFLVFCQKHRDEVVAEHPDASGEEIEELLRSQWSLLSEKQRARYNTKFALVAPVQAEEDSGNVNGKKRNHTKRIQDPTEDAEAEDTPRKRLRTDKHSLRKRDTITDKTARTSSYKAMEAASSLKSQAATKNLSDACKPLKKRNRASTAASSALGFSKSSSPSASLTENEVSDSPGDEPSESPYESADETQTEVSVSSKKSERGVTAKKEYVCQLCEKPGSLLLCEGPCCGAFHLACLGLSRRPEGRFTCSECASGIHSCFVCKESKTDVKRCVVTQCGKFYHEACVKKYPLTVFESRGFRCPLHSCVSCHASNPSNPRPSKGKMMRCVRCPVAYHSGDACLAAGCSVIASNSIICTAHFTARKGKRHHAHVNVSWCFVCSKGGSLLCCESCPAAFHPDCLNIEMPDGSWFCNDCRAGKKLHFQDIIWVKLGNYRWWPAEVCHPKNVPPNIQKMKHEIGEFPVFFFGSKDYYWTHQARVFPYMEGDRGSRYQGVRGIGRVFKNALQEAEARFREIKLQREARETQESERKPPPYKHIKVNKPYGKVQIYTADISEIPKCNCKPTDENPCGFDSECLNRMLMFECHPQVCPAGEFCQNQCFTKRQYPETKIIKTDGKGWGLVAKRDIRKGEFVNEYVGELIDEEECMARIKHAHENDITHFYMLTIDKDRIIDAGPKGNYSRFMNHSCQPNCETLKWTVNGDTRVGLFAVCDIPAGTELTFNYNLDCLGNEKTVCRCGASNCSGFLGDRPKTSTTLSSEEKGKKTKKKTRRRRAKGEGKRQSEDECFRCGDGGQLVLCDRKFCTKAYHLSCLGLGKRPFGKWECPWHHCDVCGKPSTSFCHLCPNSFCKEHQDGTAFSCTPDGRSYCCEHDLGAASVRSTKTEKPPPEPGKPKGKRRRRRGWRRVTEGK

Luciferin 4-monooxygenase, sequence (P08659 whole entry): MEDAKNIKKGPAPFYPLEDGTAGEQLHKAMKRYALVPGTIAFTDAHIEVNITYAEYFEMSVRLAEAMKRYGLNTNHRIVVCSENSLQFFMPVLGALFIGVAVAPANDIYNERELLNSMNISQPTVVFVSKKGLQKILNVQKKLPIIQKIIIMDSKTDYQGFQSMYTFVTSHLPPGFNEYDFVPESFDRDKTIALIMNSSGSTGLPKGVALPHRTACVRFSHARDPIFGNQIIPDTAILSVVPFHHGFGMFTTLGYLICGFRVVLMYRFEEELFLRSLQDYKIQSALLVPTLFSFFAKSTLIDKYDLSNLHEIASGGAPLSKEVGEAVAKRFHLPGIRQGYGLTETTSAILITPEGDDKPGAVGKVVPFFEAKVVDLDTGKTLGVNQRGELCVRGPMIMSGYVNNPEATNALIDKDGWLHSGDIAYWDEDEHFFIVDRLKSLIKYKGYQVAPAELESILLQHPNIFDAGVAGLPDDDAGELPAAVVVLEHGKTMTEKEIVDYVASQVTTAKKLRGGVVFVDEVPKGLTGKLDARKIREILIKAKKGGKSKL
T4 sequence (P11940 whole entry, the tested form may be a part): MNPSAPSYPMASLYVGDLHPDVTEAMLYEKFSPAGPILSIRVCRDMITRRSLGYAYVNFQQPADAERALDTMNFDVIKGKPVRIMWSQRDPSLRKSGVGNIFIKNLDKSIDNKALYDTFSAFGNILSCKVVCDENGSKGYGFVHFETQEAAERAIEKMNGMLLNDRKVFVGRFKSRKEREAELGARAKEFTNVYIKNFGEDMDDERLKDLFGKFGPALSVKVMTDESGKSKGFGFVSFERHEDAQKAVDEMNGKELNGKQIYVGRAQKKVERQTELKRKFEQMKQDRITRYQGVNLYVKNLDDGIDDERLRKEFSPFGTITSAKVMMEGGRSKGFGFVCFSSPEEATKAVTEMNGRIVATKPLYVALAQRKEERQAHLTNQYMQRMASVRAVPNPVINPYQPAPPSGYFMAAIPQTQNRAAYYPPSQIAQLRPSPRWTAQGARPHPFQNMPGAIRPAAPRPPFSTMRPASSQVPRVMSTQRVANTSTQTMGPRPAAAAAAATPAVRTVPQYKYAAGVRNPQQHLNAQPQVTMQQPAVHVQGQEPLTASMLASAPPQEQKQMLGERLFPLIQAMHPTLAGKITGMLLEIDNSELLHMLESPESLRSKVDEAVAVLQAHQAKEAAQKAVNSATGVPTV
Glyceraldehyde-3-phosphate dehydrogenase, sequence (P04406 whole entry): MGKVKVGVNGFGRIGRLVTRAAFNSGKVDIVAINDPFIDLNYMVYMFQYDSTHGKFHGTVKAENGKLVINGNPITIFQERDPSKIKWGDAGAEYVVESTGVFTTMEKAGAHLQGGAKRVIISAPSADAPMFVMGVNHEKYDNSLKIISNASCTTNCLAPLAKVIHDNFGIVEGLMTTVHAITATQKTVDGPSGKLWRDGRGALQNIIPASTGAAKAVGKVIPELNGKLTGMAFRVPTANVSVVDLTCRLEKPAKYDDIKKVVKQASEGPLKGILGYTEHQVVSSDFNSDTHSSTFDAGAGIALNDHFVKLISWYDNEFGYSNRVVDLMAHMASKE
Nonstructural protein 1, sequence (Q194T2 whole entry): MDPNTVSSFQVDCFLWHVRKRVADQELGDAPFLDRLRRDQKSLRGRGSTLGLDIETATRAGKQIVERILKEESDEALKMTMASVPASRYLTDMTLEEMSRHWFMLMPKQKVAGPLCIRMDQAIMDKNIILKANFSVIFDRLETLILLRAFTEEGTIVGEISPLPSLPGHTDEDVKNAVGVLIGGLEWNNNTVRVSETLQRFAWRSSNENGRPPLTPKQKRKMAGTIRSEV
Genome polyprotein, sequence (P29990 2492-3391 limits assumed): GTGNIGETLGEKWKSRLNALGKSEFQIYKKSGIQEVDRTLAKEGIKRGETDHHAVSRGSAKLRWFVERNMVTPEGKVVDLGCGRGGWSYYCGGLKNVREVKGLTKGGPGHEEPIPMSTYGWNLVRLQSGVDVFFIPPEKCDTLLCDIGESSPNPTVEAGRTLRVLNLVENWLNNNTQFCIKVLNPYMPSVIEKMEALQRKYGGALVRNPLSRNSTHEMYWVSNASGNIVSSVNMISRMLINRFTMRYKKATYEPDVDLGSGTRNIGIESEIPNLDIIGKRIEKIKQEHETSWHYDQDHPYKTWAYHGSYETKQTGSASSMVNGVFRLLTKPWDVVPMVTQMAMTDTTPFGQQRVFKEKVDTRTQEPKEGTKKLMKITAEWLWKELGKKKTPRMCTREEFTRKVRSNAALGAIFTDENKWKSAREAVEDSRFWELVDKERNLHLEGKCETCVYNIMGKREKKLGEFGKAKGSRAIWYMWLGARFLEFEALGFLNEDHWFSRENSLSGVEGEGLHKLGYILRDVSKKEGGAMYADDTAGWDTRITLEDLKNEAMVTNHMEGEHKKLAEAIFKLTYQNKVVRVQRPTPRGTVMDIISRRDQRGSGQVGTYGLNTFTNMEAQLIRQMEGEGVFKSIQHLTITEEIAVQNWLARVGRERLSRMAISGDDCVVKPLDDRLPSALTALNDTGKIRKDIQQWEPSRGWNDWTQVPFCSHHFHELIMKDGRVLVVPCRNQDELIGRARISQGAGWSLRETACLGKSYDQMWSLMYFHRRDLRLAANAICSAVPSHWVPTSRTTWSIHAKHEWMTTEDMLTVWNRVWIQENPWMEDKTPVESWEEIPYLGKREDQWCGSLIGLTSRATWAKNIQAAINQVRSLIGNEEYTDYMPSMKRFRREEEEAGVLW
Induced myeloid leukemia cell differentiation protein Mcl-1, sequence (Q07820 whole entry): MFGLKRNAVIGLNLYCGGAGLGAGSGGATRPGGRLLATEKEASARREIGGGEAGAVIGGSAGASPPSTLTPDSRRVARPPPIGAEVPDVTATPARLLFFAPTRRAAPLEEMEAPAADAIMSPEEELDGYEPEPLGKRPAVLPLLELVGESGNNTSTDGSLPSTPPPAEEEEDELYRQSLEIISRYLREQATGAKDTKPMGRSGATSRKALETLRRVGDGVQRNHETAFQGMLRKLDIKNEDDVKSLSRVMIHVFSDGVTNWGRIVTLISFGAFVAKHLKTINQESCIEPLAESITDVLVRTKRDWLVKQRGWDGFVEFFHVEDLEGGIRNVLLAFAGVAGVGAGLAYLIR

C[C@H](CO)N1C[C@H](C)[C@@H](CN(C)Cc2ccc3c(c2)OCO3)Oc2ccc(NC(=O)Nc3ccc4c(c3)OCO4)cc2CC1=O
AC50 [1]: 4.28 µM (active) | AC50 [2]: > 42 µM (inactive)

CC(NS(C)(=O)=O)C(c1cccs1)N1CCN(Cc2ccccc2)CC1 (configuration not stated)
EC50 [3]: > 112 µM (not active) | EC50 [4]: > 112 µM (not active)

O=S(=O)(Nc1ccc(O)c2ccccc12)c1ccc(OC(F)(F)F)cc1
EC50 [5]: > 195 µM (not active) | AC50 [6]: 6.55 µM (active) | AC50 [7]: 0.26 µM (active) | EC50 [8]: 66.6 nM (active) | AC50 [9]: > 52 µM (inactive) | AC50 [10]: 24.9 µM (active)

C[C@@H]1CN(C2=C(Cl)C(=O)N(c3ccc(Cl)nc3)C2=O)CCN1
IC50 [11]: > 50 µM (inconclusive)

Cc1cc2c(cc1C)NC(c1ccccn1)C1=C(O)CC(C)(C)CC1=N2 (configuration not stated)
EC50 [3]: > 112 µM (not active) | EC50 [4]: > 112 µM (not active)

CCN(CC)CCCNC(=O)c1cc(-c2ccccc2)c(N2CCCCC2)s1
EC50 [12]: 9.67 µM (active) | EC50 [13]: 28.8 µM (active) | EC50 [14]: 12.8 µM (inconclusive) | EC50 [15]: 10.1 µM (active) | AC50 [6]: 3.79 µM (active) | IC50 [16]: 88.3 µM (active) | EC50 [17]: > 133 µM (inactive)

COc1ccc(S(=O)(=O)N2CCCCN3[C@@H](CO)[C@@H](c4ccc(C#CCC(C)C)cc4)[C@@H]3C2)cc1
AC50 [1]: 1.63 µM (active) | AC50 [2]: 18.9 µM (active)

CC(=O)c1cc(O)c2ccccc2c1O
IC50 [18]: 5.99 µM (active) | AC50 [7]: > 380 µM (inactive) | EC50 [8]: 2820 nM (active) | IC50 [19]: 29.7 µM (active) | IC50 [20]: > 66 µM (inactive) | IC50 [21]: > 66 µM (inactive) | AC50 [22]: 10.6 µM (active)

C[C@@H]1CN([C@@H](C)CO)C(=O)c2c(c3ccccc3n2C)-c2ccccc2CO[C@@H]1CN(C)Cc1cccc(C(F)(F)F)c1
AC50 [1]: 1.64 µM (active) | AC50 [2]: 14 µM (active)

CN(C)CCN(Cc1ccccc1)S(=O)(=O)c1ccc(-c2ccc(O)nn2)s1
EC50 [3]: > 112 µM (not active) | EC50 [4]: 6.77 µM (active)

CO[C@@H]1CN(C)C(=O)c2cc(NC(=O)c3ccc(Oc4ccccc4)cc3)ccc2OC[C@@H](C)NC[C@@H]1C
AC50 [2]: 20.7 µM (active)

Cc1ccc(NC(=O)COc2ccc(C(=O)NCCc3ccccc3)cc2)cc1
EC50 [3]: > 112 µM (not active) | EC50 [4]: > 112 µM (not active)

Cc1cc(C=O)c(C)n1-c1ccc(N2CCCCC2)c([N+](=O)[O-])c1
AC50 [22]: > 20 µM (inactive)

Reference: ChEMBL document CHEMBL1201862, “PubChem BioAssay data set” (2004)
